Test results reported in patent publication US6126909A, “Process and apparatus for the production of BI-212 and a use thereof” (Arch Development Corporation, priority 1999, dated 2000).

Key:
microscopic carcinoma = settings: in vivo; cited from earlier work
V-79 cells = experiment: In vitro irradiation survival (clonogenic), monolayer; assay type: cell-based, Chinese hamster; settings: V-79 monolayer
Procedure: (§1) In vitro studies were carried out using three well known cell lines, the cells from which were exposed to radiation from: (1) an X-ray source; (2) P-32 chromic phosphate; and (3) Bi-212 chloride. The three cell lines that were used are V-79, which is a Chinese hamster lung fibroblast, Ehrlich-Lettre Ascites carcinoma (ATCC CCL 77), which is an ascites producing -tumor, and NIH:OVCAR-3 (ATCC HTB 161), which is a human ovarian adenocarcinoma. These well known cell lines are predictive of what happens in vivo. The cells were grown as monolayers and into spheroid formations and subsequently irradiated, as described herein.
(§2) The V-79 cells were maintained under exponential growth conditions in minimal essential medium (MEM) supplemented with 10 percent fetal bovine serum. The Ehrlich-Lettre Ascites carcinoma cells were maintained in 90 percent NCTC 109 supplemented with 10 percent fetal bovine serum. The NIH:OVCAR-3 cells were maintained in RPMI 1640 and 10 percent fetal bovine serum.
(§3) Cells from each of the cell lines were irradiated by subjecting the cells to X-ray radiation, P-32, and Bi-212. The X-ray source that was used is a General Electric 250 kvp Maxitron, 26 […] (mA) (HVL 1.5 mm Cu) operated at a dose rate of 1.11 Greys per minute (Gy/min). The cells, in both monolayer and spheroid form were exposed at room temperature and then immediately plated for survival.
(§4) Cells in both monolayer and spheroid were exposed to P-32 chromic phosphate. The radiation dose to each sample was calculated as: […]
(§5) After exposure, the cells were washed in phosphate-buffered saline (PBS) and immediately plated for survival.
(§6) The cell lines were also irradiated using Bi-212. Bismuth-212 was eluted from a generator as described in the aforementioned patent to Atcher et al., which was a cation-exchange column supporting Ra-224, with 1 ml of 0.15 N HI, and the generator was purged with 2 ml of distilled deionized water. […] The filter was purged with 1 ml of distilled deionized water, and the radioactivity was assayed using a calibrated 3×3-in. […]
(§7) Cells were exposed over a period of four hours. The dose (D) per microCurie was calculated and corrected for decay as follows: [formula] where V=volume in milliliters, and […]
(§8) Following plating, survival measurements were taken for each of the irradiated cell samples. […] The plates were then stained with crystal violet and colonies greater than 50 cells were scored. The surviving fraction was then determined.
(§9) Intrinsic radiosensitivity (Do) was calculated from the survival curves. […] Relative biological effectiveness (RBE) was determined as the ratio of the absorbed dose of X-ray to that of alpha radiation to produce the same degree of biological effect.

[1] = tested on: NIH:OVCAR-3 cells (spheroids); experiment: In vitro irradiation survival, spheroids; assay type: cell-based, human; settings: OVCAR-3 spheroids
Procedure: as §1, §2
To initiate the formation of the spheroids, cells at a concentration of about 500,000 cells per flask were seeded onto petri dishes base-cooked with 1 percent agar MEM without serum. After spheroids having a size of about 20 micrometers (μm) formed, the spheroids were transferred to spinner bottles and maintained for two to three weeks at a temperature of 37° C. in a CO2 incubator until they grew to 10 to 1000 μm. Prior to irradiation, the spheroids were sized and separated using a spheroid separation column.
as §3, §4, §5
The cell lines were also irradiated using Bi-212. […] The filter was purged with 1 ml of distilled deionized water, and the radioactivity was assayed using a calibrated 3×3-in. […]
as §7, §8
Intrinsic radiosensitivity (Do) was calculated from the survival curves. […]

[2] = tested on: microscopic disease (ovarian carcinoma); settings: stage I and stage II patients; cited from earlier work
NIH:OVCAR-3 cells = experiment: In vitro irradiation survival (clonogenic), monolayer; assay type: cell-based, human; settings: OVCAR-3 monolayer
Procedure: as §1, §2, §3, §4, §5, §6, §7, §8, §9

[3] = dose increment reducing survival to 37 percent

Row | SMILES | Treatment and eradication of microscopic carcinoma (microscopic carcinoma) | D0 (intrinsic radiosensitivity) (V-79 cells; [3]) [Gy] | Relative biological effectiveness (RBE) (V-79 cells; relative to X-ray) | D0 (intrinsic radiosensitivity) ([1]; dose to 37 percent survival) [Gy] | Relative biological effectiveness (RBE) ([1]; relative to X-ray) | Five-year survival rate [2] [%] | D0 (intrinsic radiosensitivity) (NIH:OVCAR-3 cells; [3]) [Gy] | Relative biological effectiveness (RBE) (NIH:OVCAR-3 cells; relative to X-ray)
1 | [211At] [At-211, astatine-211] | effective in the treatment and eradication of microscopic carcinoma |  |  |  |  |  |  | 
2 | O=[32P]([O-])([O-])[O-].[Cr+3] [P-32 chromic phosphate, chromic phosphate (P-32), reference compound] |  | 1.25 | 1.63 | 1.1 | 1.07 | 81 | 1.40 | 1.43
3 | [212Pb] [Pb-212, lead-212] | effective in the treatment and eradication of microscopic carcinoma |  |  |  |  |  |  | 
